# Laboratory results from ChEMBL document CHEMBL3885881, “DrugMatrix”.
# Species: Rattus norvegicus
# Test: DrugMatrix - Regimen: Daily Repeat
# Format: toxicity, organism-based, Sprague-Dawley
# Parameters: regimen Daily Repeat, gender Male, age 6-8 weeks
# Settings: in vivo, po, route oral GAVAGE, vehicle .5 % CMC; for ABSOLUTE BASOPHIL / ABSOLUTE EOSINOPHIL / ABSOLUTE LYMPHOCYTE / ABSOLUTE MONOCYTE / ABSOLUTE SEGMENTED NEUTROPHIL / BASOPHIL / EOSINOPHIL / ERYTHROCYTE COUNT / HEMATOCRIT / HEMOGLOBIN / LEUKOCYTE COUNT / LYMPHOCYTE / MEAN CORPUSCULAR HEMOGLOBIN / MEAN CORPUSCULAR HEMOGLOBIN CONCENTRATION / MEAN CORPUSCULAR VOLUME / MONOCYTE / NEUTROPHIL / NUCLEATED RED BLOOD CELLS / PLATELET COUNT: tissue Blood; for ALANINE AMINOTRANSFERASE / ALBUMIN / ALKALINE PHOSPHATASE / ASPARTATE AMINOTRANSFERASE / BLOOD UREA NITROGEN / CARBON DIOXIDE / CHLORIDE / CHOLESTEROL / CREATINE PHOSPHOKINASE / CREATININE / GLUCOSE / LACTATE DEHYDROGENASE / LIPASE / PHOSPHORUS / POTASSIUM / SODIUM / TOTAL BILIRUBIN / TOTAL PROTEIN / URIC ACID: tissue Plasma
# [1] = 0 mg/kg, 72 h, dose level Control, time 3 day
# [2] = 0 mg/kg, 120 h, dose level Control, time 5 day
# [3] = 30 mg/kg, 72 h, dose level Low, time 3 day
# [4] = 30 mg/kg, 120 h, dose level Low, time 5 day
structure (smiles),measurement,setting,value
COc1ccc(/C=C/C(=O)Nc2ccccc2C(=O)O)cc1OC,ABSOLUTE BASOPHIL,[1],0 CELLS/uL
same,ABSOLUTE EOSINOPHIL,[1],222.83 CELLS/uL
same,ABSOLUTE LYMPHOCYTE,[1],14453 CELLS/uL
same,ABSOLUTE MONOCYTE,[1],0 CELLS/uL
same,ABSOLUTE SEGMENTED NEUTROPHIL,[1],1490.83 CELLS/uL
same,BASOPHIL,[1],0%
same,EOSINOPHIL,[1],1.33%
same,ERYTHROCYTE COUNT,[1],5.76 x10E6/uL
same,HEMATOCRIT,[1],36.52%
same,HEMOGLOBIN,[1],13.45 G/DL
same,LEUKOCYTE COUNT,[1],16.17 x10E3/uL
same,LYMPHOCYTE,[1],89.33%
same,MEAN CORPUSCULAR HEMOGLOBIN,[1],23.37 pg
same,MEAN CORPUSCULAR HEMOGLOBIN CONCENTRATION,[1],36.85 G/DL
same,MEAN CORPUSCULAR VOLUME,[1],63.47 fL
same,MONOCYTE,[1],0%
same,NEUTROPHIL,[1],9.33%
same,NUCLEATED RED BLOOD CELLS,[1],0 /100WBC
same,PLATELET COUNT,[1],1239.5 x10E3/uL
same,ALANINE AMINOTRANSFERASE,[1],43.83 u/L
same,ALBUMIN,[1],4.27 G/DL
same,ALKALINE PHOSPHATASE,[1],398.83 u/L
same,ASPARTATE AMINOTRANSFERASE,[1],81.17 u/L
same,BLOOD UREA NITROGEN,[1],17.67 mg/dL
same,CARBON DIOXIDE,[1],27.5 mmol/L
same,CHLORIDE,[1],99.17 MEQ/L
same,CHOLESTEROL,[1],74 mg/dL
same,CREATINE PHOSPHOKINASE,[1],331.5 u/L
same,CREATININE,[1],0.2 mg/dL
same,GLUCOSE,[1],171.33 mg/dL
same,LACTATE DEHYDROGENASE,[1],241.67 u/L
same,LIPASE,[1],9.5 u/L
same,PHOSPHORUS,[1],12.25 mg/dL
same,POTASSIUM,[1],6.33 MEQ/L
same,SODIUM,[1],141.28 MEQ/L
same,TOTAL BILIRUBIN,[1],0.15 mg/dL
same,TOTAL PROTEIN,[1],5.98 G/DL
same,URIC ACID,[1],1.63 mg/dL
same,ABSOLUTE BASOPHIL,[2],0 CELLS/uL
same,ABSOLUTE EOSINOPHIL,[2],148.67 CELLS/uL
same,ABSOLUTE LYMPHOCYTE,[2],16020.5 CELLS/uL
same,ABSOLUTE MONOCYTE,[2],29.17 CELLS/uL
same,ABSOLUTE SEGMENTED NEUTROPHIL,[2],1468.33 CELLS/uL
same,BASOPHIL,[2],0%
same,EOSINOPHIL,[2],1%
same,ERYTHROCYTE COUNT,[2],5.78 x10E6/uL
same,HEMATOCRIT,[2],35.77%
same,HEMOGLOBIN,[2],13.4 G/DL
same,LEUKOCYTE COUNT,[2],17.67 x10E3/uL
same,LYMPHOCYTE,[2],90.5%
same,MEAN CORPUSCULAR HEMOGLOBIN,[2],23.22 pg
same,MEAN CORPUSCULAR HEMOGLOBIN CONCENTRATION,[2],37.47 G/DL
same,MEAN CORPUSCULAR VOLUME,[2],61.92 fL
same,MONOCYTE,[2],0.17%
same,NEUTROPHIL,[2],8.33%
same,NUCLEATED RED BLOOD CELLS,[2],0.17 /100WBC
same,PLATELET COUNT,[2],1255.5 x10E3/uL
same,ALANINE AMINOTRANSFERASE,[2],46.5 u/L
same,ALBUMIN,[2],4.38 G/DL
same,ALKALINE PHOSPHATASE,[2],336 u/L
same,ASPARTATE AMINOTRANSFERASE,[2],76.5 u/L
same,BLOOD UREA NITROGEN,[2],20 mg/dL
same,CARBON DIOXIDE,[2],27.5 mmol/L
same,CHLORIDE,[2],101 MEQ/L
same,CHOLESTEROL,[2],71.33 mg/dL
same,CREATINE PHOSPHOKINASE,[2],231.83 u/L
same,CREATININE,[2],0.37 mg/dL
same,GLUCOSE,[2],168.83 mg/dL
same,LACTATE DEHYDROGENASE,[2],174 u/L
same,LIPASE,[2],8.67 u/L
same,PHOSPHORUS,[2],11.48 mg/dL
same,POTASSIUM,[2],6.82 MEQ/L
same,SODIUM,[2],143.8 MEQ/L
same,TOTAL BILIRUBIN,[2],0.2 mg/dL
same,TOTAL PROTEIN,[2],5.98 G/DL
same,URIC ACID,[2],1.83 mg/dL
same,ABSOLUTE BASOPHIL,[3],0 CELLS/uL
same,ABSOLUTE EOSINOPHIL,[3],217.33 CELLS/uL
same,ABSOLUTE LYMPHOCYTE,[3],12060 CELLS/uL
same,ABSOLUTE MONOCYTE,[3],0 CELLS/uL
same,ABSOLUTE SEGMENTED NEUTROPHIL,[3],1122.67 CELLS/uL
same,BASOPHIL,[3],0%
same,EOSINOPHIL,[3],1.67%
same,ERYTHROCYTE COUNT,[3],5.52 x10E6/uL
same,HEMATOCRIT,[3],34.6%
same,HEMOGLOBIN,[3],13.1 G/DL
same,LEUKOCYTE COUNT,[3],13.4 x10E3/uL
same,LYMPHOCYTE,[3],90%
same,MEAN CORPUSCULAR HEMOGLOBIN,[3],23.77 pg
same,MEAN CORPUSCULAR HEMOGLOBIN CONCENTRATION,[3],37.9 G/DL
same,MEAN CORPUSCULAR VOLUME,[3],62.73 fL
same,MONOCYTE,[3],0%
same,NEUTROPHIL,[3],8.33%
same,NUCLEATED RED BLOOD CELLS,[3],0 /100WBC
same,PLATELET COUNT,[3],1155.33 x10E3/uL
same,ALANINE AMINOTRANSFERASE,[3],48.67 u/L
same,ALBUMIN,[3],4.13 G/DL
same,ALKALINE PHOSPHATASE,[3],344.33 u/L
same,ASPARTATE AMINOTRANSFERASE,[3],77 u/L
same,BLOOD UREA NITROGEN,[3],14.67 mg/dL
same,CARBON DIOXIDE,[3],23.67 mmol/L
same,CHLORIDE,[3],103.67 MEQ/L
same,CHOLESTEROL,[3],71 mg/dL
same,CREATINE PHOSPHOKINASE,[3],180 u/L
same,CREATININE,[3],0.19 mg/dL
same,GLUCOSE,[3],159.67 mg/dL
same,LACTATE DEHYDROGENASE,[3],96.67 u/L
same,LIPASE,[3],8 u/L
same,PHOSPHORUS,[3],12.47 mg/dL
same,POTASSIUM,[3],5.88 MEQ/L
same,SODIUM,[3],144.63 MEQ/L
same,TOTAL BILIRUBIN,[3],0.17 mg/dL
same,TOTAL PROTEIN,[3],5.67 G/DL
same,URIC ACID,[3],1.47 mg/dL
same,ABSOLUTE BASOPHIL,[4],0 CELLS/uL
same,ABSOLUTE EOSINOPHIL,[4],278.67 CELLS/uL
same,ABSOLUTE LYMPHOCYTE,[4],14764.67 CELLS/uL
same,ABSOLUTE MONOCYTE,[4],0 CELLS/uL
same,ABSOLUTE SEGMENTED NEUTROPHIL,[4],1590 CELLS/uL
same,BASOPHIL,[4],0%
same,EOSINOPHIL,[4],1.67%
same,ERYTHROCYTE COUNT,[4],5.36 x10E6/uL
same,HEMATOCRIT,[4],34.2%
same,HEMOGLOBIN,[4],13.03 G/DL
same,LEUKOCYTE COUNT,[4],16.63 x10E3/uL
same,LYMPHOCYTE,[4],88.67%
same,MEAN CORPUSCULAR HEMOGLOBIN,[4],24.4 pg
same,MEAN CORPUSCULAR HEMOGLOBIN CONCENTRATION,[4],38.1 G/DL
same,MEAN CORPUSCULAR VOLUME,[4],63.97 fL
same,MONOCYTE,[4],0%
same,NEUTROPHIL,[4],9.67%
same,NUCLEATED RED BLOOD CELLS,[4],0.33 /100WBC
same,PLATELET COUNT,[4],1260.33 x10E3/uL
same,ALANINE AMINOTRANSFERASE,[4],59 u/L
same,ALBUMIN,[4],4.5 G/DL
same,ALKALINE PHOSPHATASE,[4],404 u/L
same,ASPARTATE AMINOTRANSFERASE,[4],84.33 u/L
same,BLOOD UREA NITROGEN,[4],18.33 mg/dL
same,CARBON DIOXIDE,[4],25.33 mmol/L
same,CHLORIDE,[4],103 MEQ/L
same,CHOLESTEROL,[4],75.67 mg/dL
same,CREATINE PHOSPHOKINASE,[4],221 u/L
same,CREATININE,[4],0.18 mg/dL
same,GLUCOSE,[4],161.67 mg/dL
same,LACTATE DEHYDROGENASE,[4],269 u/L
same,LIPASE,[4],9 u/L
same,PHOSPHORUS,[4],12.57 mg/dL
same,POTASSIUM,[4],6.47 MEQ/L
same,SODIUM,[4],145.07 MEQ/L
same,TOTAL BILIRUBIN,[4],0.1 mg/dL
same,TOTAL PROTEIN,[4],6.03 G/DL
same,URIC ACID,[4],1.6 mg/dL
